# Experimental data as given in the supplement of paper PMC6045584.
# ± gives the standard deviation of the averaged measurements.
# Legend:
# NILOTINIB = compound: Cc1cn(-c2cc(NC(=O)c3ccc(C)c(Nc4nccc(-c5cccnc5)n4)c3)cc(C(F)(F)F)c2)cn1 [NILOTINIB]; assay: surviving fraction relative to DMSO-only wells; higher = less growth inhibition; settings: exposure time: 5 days
# How it was run: (§1)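 In 384-well plates, 250–500 log-phase tumour cells per well were given 24 hours before five days of continuous exposure to inhibitors at 0.5, 1, 5, 10, 50, 100, 500 and 1000 nM. Surviving fraction is luminescence from CellTiter-Glo, normalised to the median of wells containing DMSO alone. Reading took place after 10 minutes at room temperature.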
# [1] = compound: CCc1cc(Nc2nccc(-c3c(-c4ccc(OC)c(C(=O)Nc5c(F)cccc5F)c4)nc4ccccn34)n2)c(OC)cc1N1CCC(N2CCN(S(C)(=O)=O)CC2)CC1; assay: as above; settings: exposure time: 5 days
# How it was run: as §1
Test System,surviving fraction (NILOTINIB; 0.5 nM),surviving fraction (NILOTINIB; 1 nM),surviving fraction (NILOTINIB; 5 nM),surviving fraction (NILOTINIB; 10 nM),surviving fraction (NILOTINIB; 50 nM),surviving fraction (NILOTINIB; 100 nM),surviving fraction (NILOTINIB; 500 nM),surviving fraction (NILOTINIB; 1000 nM),surviving fraction ([1]; 0.5 nM),surviving fraction ([1]; 1 nM),surviving fraction ([1]; 5 nM),surviving fraction ([1]; 10 nM),surviving fraction ([1]; 50 nM),surviving fraction ([1]; 100 nM),surviving fraction ([1]; 500 nM),surviving fraction ([1]; 1000 nM)
22RV1 PROSTATE,1.04 ± 0.05,1.07 ± 0.026,1.13 ± 0.079,1 ± 0.022,1.18 ± 0.13,1.09 ± 0.1,1.09 ± 0.043,1.09 ± 0.038,1 ± 0.014,1.02 ± 0.023,0.989 ± 0.014,0.953 ± 0.026,1.01 ± 0.024,0.991 ± 0.057,0.989 ± 0.033,0.946 ± 0.042
93VU HEADNECK,1.01 ± 0.03,0.97 ± 0.013,1.1 ± 0.1,1.14 ± 0.058,0.964 ± 0.049,1.03 ± 0.088,0.938 ± 0.076,0.872 ± 0.057,1.03 ± 0.062,1.09 ± 0.15,1.1 ± 0.21,1.12 ± 0.063,1.11 ± 0.033,1.05 ± 0.089,0.932 ± 0.051,0.936 ± 0.094
143B BONE,1.09 ± 0.076,1.07 ± 0.043,1.13 ± 0.1,1.11 ± 0.081,1.14 ± 0.12,1.14 ± 0.11,1.1 ± 0.11,1.11 ± 0.11,0.985 ± 0.033,0.959 ± 0.086,0.928 ± 0.13,1.03 ± 0.031,0.9995 ± 0.0035,0.996 ± 0.052,0.999 ± 0.0042,0.959 ± 0.023
A549 LUNG,1.06 ± 0.018,1.042 ± 0.01,1.11 ± 0.024,1.08 ± 0.037,1.1 ± 0.03,1.13 ± 0.045,1.08 ± 0.028,1.11 ± 0.043,0.954 ± 0.022,0.994 ± 0.045,0.995 ± 0.032,1.02 ± 0.033,0.983 ± 0.029,1.04 ± 0.036,1.01 ± 0.042,1.01 ± 0.034
ASKA SYNOVIAL,1.13 ± 0.033,1.02 ± 0.11,1.145 ± 0.0067,1.15 ± 0.036,1.08 ± 0.08,0.988 ± 0.088,0.936 ± 0.083,0.864 ± 0.066,1.16 ± 0.063,1.17 ± 0.057,1.27 ± 0.088,1.16 ± 0.1,1.19 ± 0.017,1.2 ± 0.03,1.18 ± 0.03,1.04 ± 0.094
BT20 BREAST,1.076 ± 0.0072,1.073 ± 0.0027,1.06 ± 0.05,1.16 ± 0.084,0.913 ± 0.14,1.01 ± 0.14,0.984 ± 0.12,0.878 ± 0.062,1.06 ± 0.11,1.01 ± 0.086,1.09 ± 0.018,1.13 ± 0.14,0.932 ± 0.068,0.941 ± 0.036,0.825 ± 0.074,0.707 ± 0.029
BT549 BREAST,1.1 ± 0.15,0.924 ± 0.095,1.1 ± 0.11,1.12 ± 0.11,1.05 ± 0.11,0.93 ± 0.14,1.01 ± 0.16,0.964 ± 0.15,1.03 ± 0.098,1.06 ± 0.033,1.14 ± 0.097,1.13 ± 0.082,1.07 ± 0.1,1.12 ± 0.1,1.08 ± 0.074,0.852 ± 0.019
C33A CERVIX,0.986 ± 0.1,1.08 ± 0.05,1.07 ± 0.031,1.01 ± 0.06,1.13 ± 0.067,1.27 ± 0.031,1.2 ± 0.086,1.14 ± 0.12,0.755 ± 0.047,0.874 ± 0.086,1 ± 0.057,0.892 ± 0.11,1.01 ± 0.11,0.952 ± 0.031,0.832 ± 0.062,0.793 ± 0.051
CADOES1 SOFT TISSUE,1.02 ± 0.17,0.987 ± 0.05,1.01 ± 0.13,0.93 ± 0.071,0.932 ± 0.13,1.02 ± 0.045,0.963 ± 0.055,1.01 ± 0.057,0.983 ± 0.048,0.983 ± 0.065,0.892 ± 0.12,0.885 ± 0.04,0.87 ± 0.1,1.05 ± 0.12,1.06 ± 0.12,1.08 ± 0.042
CAL51 BREAST,0.977 ± 0.039,0.897 ± 0.066,1.01 ± 0.038,0.947 ± 0.073,1.03 ± 0.068,1.01 ± 0.06,0.952 ± 0.059,0.971 ± 0.032,0.995 ± 0.06,1 ± 0.025,0.998 ± 0.029,1.03 ± 0.068,1.02 ± 0.017,1.04 ± 0.05,1.03 ± 0.043,1.03 ± 0.042
CAL72 BONE,1.02 ± 0.031,1.06 ± 0.018,1.03 ± 0.038,1.06 ± 0.018,0.979 ± 0.033,1.02 ± 0.013,0.969 ± 0.062,0.977 ± 0.06,1.06 ± 0.033,1.02 ± 0.026,1.03 ± 0.017,1.05 ± 0.025,1.08 ± 0.035,1.12 ± 0.032,1.13 ± 0.029,1.13 ± 0.033
CAL120 BREAST,1.02 ± 0.041,1.02 ± 0.012,1.04 ± 0.052,1.03 ± 0.035,1.04 ± 0.027,1.01 ± 0.072,1.04 ± 0.081,1.02 ± 0.049,0.944 ± 0.013,0.9663 ± 0.0055,0.968 ± 0.013,0.976 ± 0.032,0.976 ± 0.032,0.977 ± 0.024,0.944 ± 0.031,0.945 ± 0.021
CASKI CERVIX,0.914 ± 0.026,0.993 ± 0.024,1.01 ± 0.063,0.96 ± 0.045,0.88 ± 0.063,0.785 ± 0.035,0.764 ± 0.13,0.77 ± 0.075,0.937 ± 0.051,0.949 ± 0.055,0.97 ± 0.048,0.979 ± 0.04,0.946 ± 0.015,1.01 ± 0.043,0.967 ± 0.07,0.88 ± 0.039
CHLA90 AUTONOMIC GANGLIA,0.993 ± 0.057,1.01 ± 0.082,0.957 ± 0.036,1.09 ± 0.076,1.1 ± 0.055,1.14 ± 0.12,1.11 ± 0.016,1.09 ± 0.077,0.955 ± 0.039,1 ± 0.011,0.969 ± 0.054,0.932 ± 0.028,0.9353 ± 0.0021,0.94 ± 0.05,0.986 ± 0.031,0.952 ± 0.055
CME SYNOVIAL,1.17 ± 0.064,1.15 ± 0.24,1.31 ± 0.15,1.21 ± 0.091,1.1 ± 0.12,1 ± 0.099,0.926 ± 0.11,0.483 ± 0.026,1.4 ± 0.11,1.39 ± 0.21,1.39 ± 0.19,1.23 ± 0.05,1.36 ± 0.22,1.31 ± 0.089,0.913 ± 0.11,0.507 ± 0.034
COLO320DM LARGE INTESTINE,1.12 ± 0.059,1.04 ± 0.086,1.05 ± 0.13,1.08 ± 0.061,1.06 ± 0.095,0.961 ± 0.022,0.949 ± 0.024,0.764 ± 0.04,1.08 ± 0.04,1.18 ± 0.11,1.17 ± 0.06,1.19 ± 0.071,1.19 ± 0.09,1.14 ± 0.095,1.11 ± 0.061,0.892 ± 0.041
DU4475 BREAST,1.12 ± 0.018,1.06 ± 0.023,1.14 ± 0.13,1.06 ± 0.063,0.925 ± 0.088,1.06 ± 0.1,1.05 ± 0.066,0.9 ± 0.061,0.866 ± 0.12,0.937 ± 0.041,0.819 ± 0.072,1 ± 0.06,0.977 ± 0.28,0.832 ± 0.27,1.11 ± 0.34,1.19 ± 0.24
H23 LUNG,1.04 ± 0.077,1.05 ± 0.052,1.14 ± 0.025,1.08 ± 0.033,1.24 ± 0.096,1.26 ± 0.088,1.18 ± 0.094,1.17 ± 0.1,0.939 ± 0.042,1.02 ± 0.032,0.973 ± 0.012,1.06 ± 0.078,0.997 ± 0.014,1.02 ± 0.038,1.02 ± 0.029,1 ± 0.032
HCC78 LUNG,1.01 ± 0.092,0.993 ± 0.085,0.994 ± 0.055,1.1 ± 0.12,1.05 ± 0.09,1.1 ± 0.095,0.719 ± 0.085,0.525 ± 0.03,0.893 ± 0.21,0.819 ± 0.18,0.91 ± 0.14,0.859 ± 0.05,0.899 ± 0.32,0.864 ± 0.051,0.653 ± 0.19,0.657 ± 0.14
HCC202 BREAST,1.36 ± 0.11,1.08 ± 0.044,0.83 ± 0.15,0.987 ± 0.5,1.01 ± 0.22,1.09 ± 0.069,1.08 ± 0.052,0.912 ± 0.034,1.11 ± 0.32,1.27 ± 0.15,1.21 ± 0.21,1.14 ± 0.17,1.4 ± 0.18,1.25 ± 0.13,1.14 ± 0.15,1.18 ± 0.05
